According to patent US20240101546A1, “HETEROARYL-ACETYLENES, PHARMACEUTICAL COMPOSITIONS THEREOF, AND THEIR THERAPEUTIC APPLICATIONS” (Eubulus Biotherapeutics Inc., priority 2020, published 2024):

Tested on: lung cancer cell line NCI-H82
Assay: Cell proliferation assay, NCI-H82 (CELL-TITER GLO)
Assay type: cell-based
Conditions: Homo sapiens, NCI-H82, 72 h, NCI-H82 cells, 72 h incubation, cell viability by CELL-TITER GLO, top concentration 1 μM; read-out: EC50, Inhibition of NCl-H82 Cell Proliferation
Method in brief: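 NCI-H82 cells, 1,000 per well in RPMI1640, were treated after overnight plating with a 3-fold dilution series from 1 μM. Viability read by CellTiter-Glo luminescence after 72 h. EC50 derived from the curves.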

EC50 [nM]	Structure (SMILES)
≤ 200	C#Cc1nc(NC(=O)N(C)[C@@H](COC(N)=O)c2ccc(-c3ccc(F)cc3C3CC3(F)F)cn2)cs1 (stereo partly drawn) [Compound A84, (2R)-2-(5-(2-(2,2-Difluorocyclopropyl)-4-fluorophenyl)pyridin-2-yl)-2-(3-(2-ethynylthiazol-4-yl)-1-methylureido)ethyl carbamate]
≤ 200	C#Cc1nc(NC(=O)N[C@@H](COC(N)=O)c2ccc(-c3cccc4nccnc34)cc2)cs1 [Compound A51, (R)-2-(3-(2-Ethynylthiazol-4-yl)ureido)-2-(4-(quinoxalin-5-yl)phenyl)ethyl carbamate]
≤ 200	C#Cc1nc(NC(=O)NCc2ccc(-c3cccc(C4(C#N)CC4)c3)cc2)cs1 [Compound A167, 1-((3′-(1-Cyanocyclopropyl)-[1,1′-biphenyl]-4-yl)methyl)-3-(2-ethynylthiazol-4-yl)urea]
≤ 200	C#Cc1nc(NC(=O)N[C@@H](CO)c2ccc(-c3cccc4c3c(C#N)nn4C)cc2)cs1 [Compound A53, (R)-1-(1-(4-(3-Cyano-1-methyl-1H-indazol-4-yl)phenyl)-2-hydroxyethyl)-3-(2-ethynylthiazol-4-yl)urea]
≤ 200	C#Cc1nc(NC(=O)N[C@@H](CO)c2ccc(-c3c(F)cccc3C3(C#N)CC3)cn2)cs1 [Compound A78, (R)-1-(1-(5-(2-(1-Cyanocyclopropyl)-6-fluorophenyl)pyridin-2-yl)-2-hydroxy-ethyl)-3-(2-ethynylthiazol-4-yl)urea]
200 to 1000	C#Cc1nc(NC(=O)N[C@@H](CO)c2ccc(C3CCCN(C)C3)cc2)cs1 (stereo partly drawn) [Compound A192, 1-(2-Ethynylthiazol-4-yl)-3-((1R)-2-hydroxy-1-(4-(1-methylpiperidin-3-yl)-phenyl)ethyl)urea]
≤ 200	C#Cc1nc(NC(=O)N[C@@H](COC(N)=O)c2ccc(-c3ncccc3C#N)cc2)cs1 [Compound A47, (R)-2-(4-(3-Cyanopyridin-2-yl)phenyl)-2-(3-(2-ethynylthiazol-4-yl)ureido)ethyl carbamate]
≤ 200	C#Cc1nc(NC(=O)N[C@@H](COC(N)=O)c2ccc(-c3cccnc3N3CC(F)(F)C3)cc2)cs1 [Compound A103, (R)-2-(4-(2-(3,3-Difluoroazetidin-1-yl)pyridin-3-yl)phenyl)-2-(3-(2-ethynyl-thiazol-4-yl)ureido)ethyl carbamate]
≤ 200	C#Cc1nc(NC(=O)N[C@@H](COC(N)=O)c2ccc(-c3ccccc3C3(C#N)CC3)cc2)cs1 [Compound A55, (R)-2-(2′-(1-Cyanocyclopropyl)-[1,1′-biphenyl]-4-yl)-2-(3-(2-ethynylthiazol-4-yl)ureido)ethyl carbamate]
≤ 200	C#Cc1nc(NC(=O)N(CCC#N)Cc2ccc(-c3cccc4ncsc34)cc2)cs1 [Compound A205, 1-(4-(Benzo[d]thiazol-7-yl)benzyl)-1-(2-cyanoethyl)-3-(2-ethynylthiazol-4-yl)urea]
≤ 200	C#Cc1nc(NC(=O)N[C@@H](CO)c2ccc(-n3ccccc3=O)cc2)cs1 [Compound A132, (R)-1-(2-Ethynylthiazol-4-yl)-3-(2-hydroxy-1-(4-(2-oxopyridin-1(2H)-yl)phenyl)-ethyl)urea]
≤ 200	C#Cc1nc(NC(=O)N[C@@H](COC(N)=O)c2ccc(-c3cccc4c3cnn4C)cc2)cs1 [Compound A231, (R)-2-(3-(2-Ethynylthiazol-4-yl)ureido)-2-(4-(1-methyl-1H-indazol-4-yl)phenyl)-ethyl carbamate]
200 to 1000	C#Cc1nc(NC(=O)N[C@H](CO)C(=O)N2CCC(N3CC(F)(F)C3)CC2)cs1 [Compound A160, (R)-1-(1-(4-(3,3-Difluoroazetidin-1-yl)piperidin-1-yl)-3-hydroxy-1-oxopropan-2-yl)-3-(2-ethynylthiazol-4-yl)urea]
≤ 200	C#Cc1nc(NC(=O)N[C@@H](COC(N)=O)c2ccc(-c3cccnc3N(C)C)c(Cl)c2)cs1 [Compound A101, (R)-2-(3-Chloro-4-(2-(dimethylamino)pyridin-3-yl)phenyl)-2-(3-(2-ethynyl-thiazol-4-yl)ureido)ethyl carbamate]
≤ 200	C#Cc1nc(NC(=O)NCc2ccc(-c3cccc(C4(O)CC4)c3)cc2)cs1 [Compound A168, 1-(2-Ethynylthiazol-4-yl)-3-((3′-(1-hydroxycyclopropyl)-[1,1′-biphenyl]-4-yl)methyl)urea]
≤ 200	C#Cc1nc(NC(=O)NCc2ccc(-c3cccc(N4CCCC4)n3)cc2)cs1 [Compound A176, 1-(2-Ethynylthiazol-4-yl)-3-(4-(6-(pyrrolidin-1-yl)pyridin-2-yl)benzyl)urea]
≤ 200	C#Cc1nc(NC(=O)N[C@@H](CO)C(=O)N2CCC3(CCCCC3)CC2)cs1 [Compound A157, (S)-1-(2-Ethynylthiazol-4-yl)-3-(3-hydroxy-1-oxo-1-(3-azaspiro[5.5]undecan-3-yl)propan-2-yl)urea]
≤ 200	C#Cc1nc(NC(=O)N[C@@H](CO)c2ccc(-c3cccc4ncsc34)cc2)c(C)s1 [Compound A119, (R)-1-(1-(4-(Benzo[d]thiazol-7-yl)phenyl)-2-hydroxyethyl)-3-(2-ethynyl-5-methylthiazol-4-yl)urea]
≤ 200	C#Cc1nc(NC(=O)N[C@@H](CO)C(=O)N2CCC3(CCCC3)CC2)cs1 [Compound A154, (S)-1-(2-Ethynylthiazol-4-yl)-3-(3-hydroxy-1-oxo-1-(8-azaspiro[4.5]decan-8-yl)propan-2-yl)urea]
≤ 200	C#Cc1nc(NC(=O)N[C@@H](CS(N)(=O)=O)c2ccc(-c3ccc(F)c4ncsc34)c(Cl)c2)cs1 [Compound A115, (R)-2-(3-Chloro-4-(4-fluorobenzo[d]thiazol-7-yl)phenyl)-2-(3-(2-ethynylthiazol-4-yl)ureido)ethane-1-sulfonamide]
≤ 200	C#Cc1nc(NC(=O)N[C@@H](CO)c2ccc(C3=C(C#N)CCCC3)cn2)cs1 [Compound A142, (R)-1-(1-(5-(2-Cyanocyclohex-1-en-1-yl)pyridin-2-yl)-2-hydroxyethyl)-3-(2-ethynylthiazol-4-yl)urea]
≤ 200	C#Cc1nc(NC(=O)N[C@@H](COC(N)=O)c2ccc(-c3cccc4ccnc(O)c34)cc2)cs1 [Compound A105, (R)-2-(3-(2-Ethynylthiazol-4-yl)ureido)-2-(4-(1-hydroxyisoquinolin-8-yl)phenyl)-ethyl carbamate]
≤ 200	C#Cc1nc(NC(=O)N[C@@H](COC(C)=O)c2ccc(-c3cccc4ncsc34)cc2)cs1 [Compound A201, (R)-2-(4-(Benzo[d]thiazol-7-yl)phenyl)-2-(3-(2-ethynylthiazol-4-yl)ureido)ethyl acetate]
≤ 200	C#Cc1nc(NC(=O)N[C@@H](C(=O)NC)c2ccc(-c3cccc4nc[nH]c(=O)c34)cc2)cs1 [Compound A213, (R)-2-(3-(2-Ethynylthiazol-4-yl)ureido)-N-methyl-2-(4-(4-oxo-3,4-dihydro-quinazolin-5-yl)phenyl)acetamide]
≤ 200	C#Cc1nc(NC(=O)N[C@@H](CO)c2ccc(N3CCCc4c3cnn4C)cc2)cs1 [Compound A139, (R)-1-(2-Ethynylthiazol-4-yl)-3-(2-hydroxy-1-(4-(1-methyl-1,5,6,7-tetrahydro-4H-pyrazolo[4,3-b]pyridin-4-yl)phenyl)ethyl)urea]
≤ 200	C#Cc1nc(NC(=O)N[C@H](CO)C2CCN(c3ccccc3C#N)CC2)cs1 [Compound A151, (S)-1-(1-(1-(2-Cyanophenyl)piperidin-4-yl)-2-hydroxyethyl)-3-(2-ethynylthiazol-4-yl)urea]
